The record followed here is ChEMBL document CHEMBL1201862, “PubChem BioAssay data set” (2004).

Active and inactive are the calls of the source.

The target of experiment [1] is Paired box protein Pax-8 (Homo sapiens, UniProt Q06710). The experiment can be described thus: inhibitors of PAX8-driven TPO luciferase reporter, dose response, RMG-I cells, cherry-pick (AID 687027).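 Note: luciferase reporter driven by Pax8 target thyroperoxidase promoter measured by SteadyGlo luminescence.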 Format: functional, cell-based. A general note: Reporter assays use an easily measured gene product as a stand-in for the process of interest.
Chain of Paired box protein Pax-8 (Q06710 whole entry): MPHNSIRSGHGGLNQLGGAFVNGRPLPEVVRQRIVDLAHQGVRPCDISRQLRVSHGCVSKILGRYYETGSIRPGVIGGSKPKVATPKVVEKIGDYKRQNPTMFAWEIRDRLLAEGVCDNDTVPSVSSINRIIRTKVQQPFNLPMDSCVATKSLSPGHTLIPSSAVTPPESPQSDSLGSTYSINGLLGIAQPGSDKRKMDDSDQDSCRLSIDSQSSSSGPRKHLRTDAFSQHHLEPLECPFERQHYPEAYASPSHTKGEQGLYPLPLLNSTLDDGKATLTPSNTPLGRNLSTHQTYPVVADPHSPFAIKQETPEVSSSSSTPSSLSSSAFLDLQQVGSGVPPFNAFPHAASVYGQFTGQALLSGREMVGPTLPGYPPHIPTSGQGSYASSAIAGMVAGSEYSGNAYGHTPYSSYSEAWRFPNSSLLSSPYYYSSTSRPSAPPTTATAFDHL
Experiment [2] can be described thus: cytotoxicity in OVCAR8 ovarian cancer cells, dose response, PAX8 project, cell-based, plate reader, dry powder samples (AID 743197). Format: functional. The settings on record: OVCAR-8.
Experiment [3] in a line: P. falciparum Dd2 growth inhibitors, dose response, SYBR Green, cherry-picked samples (AID 1159567). It counts as functional, cell-based.
Experiment [4] is described as follows: T. cruzi growth inhibition in host cells, dose response, cell-based, plate reader, dry powder, set 2 (AID 652275). Format: functional.
A short description of experiment [5]: HEK293 cell cytotoxicity, dose response, cytotoxicity control, cherry-picks, set 5 (AID 1053117). It counts as functional, cell-based.

The term AC50 denotes the midpoint of the concentration-response curve, whichever way the signal moves. `C[C@H]1CN([C@@H](C)CO)C(=O)c2c(c3ccccc3n2C)-c2ccccc2CO[C@@H]1CN(C)S(=O)(=O)c1cccc(F)c1`: the AC50 in experiment [1] was 11.6 µM (active); in experiment [2], 37.3 µM (active); in experiment [3] it was 4.88 µM (active).

`COc1cccc(-c2ccc([C@H]3[C@H](CO)N4CCCCN(C(=O)Cc5ccncc5)C[C@@H]34)cc2)c1`: the AC50 in experiment [4] was 2.13 µM (active).

For `CC(C)(O)C#Cc1cccc(-c2nc(C(=O)NCc3ccc4c(c3)OCO4)cc3c2[C@H](CCO)N([S+]([O-])C(C)(C)C)C3)c1` (some centres not stated), the AC50 in experiment [4] is 2.44 µM (active).

For `C[C@H](CO)N1C[C@H](C)[C@@H](CN(C)C(=O)c2cccc(F)c2)Oc2ncc(-c3ccccc3)cc2C1=O`, the AC50 in experiment [5] was > 52 µM (inactive).

In the case of `CC(C)N1C[C@H](C)[C@@H](CN(C)Cc2ccc(Oc3ccccc3)cc2)Oc2c(cccc2-c2nn[nH]n2)C1=O`, the AC50 in experiment [4] is 7.34 µM (active).
